Results as given in patent publication US11952392B2, “Arginase inhibitors and methods of use thereof” (AstraZeneca AB, priority 2018, dated 2024).

Test: Gravity vapor sorption (GVS) analysis
Assay type: physicochemical
[1] = at relative humidity (RH) of 80%

| RH after which the solid starts to deliquesce (GVS) [% RH] | water absorbed (GVS) (at relative humidity (RH) of 70%) | water absorbed (GVS) [1] | SMILES |
| --- | --- | --- | --- |
| > 80 | less than 2% |  | CC(C)[C@H](N)C(=O)N[C@H]1CN[C@]2(CCCCB(O)OC2=O)C1 [Example 1, (S)-2-amino-N-((3R,5R)-8-hydroxy-6-oxo-7-oxa-1-aza-8-boraspiro[4.7]dodecan-3-yl)-3-methylbutanamide] |
|  |  | less than 2% | CC(C)[C@@H]1NC(C)(C)N([C@H]2CN[C@]3(CCCCB(O)OC3=O)C2)C1=O [Example 2, (3R,5R)-8-hydroxy-3-((S)-4-isopropyl-2,2-dimethyl-5-oxoimidazolidin-1-yl)-7-oxa-1-aza-8-boraspiro[4.7]dodecan-6-one] |
|  |  | less than 2% | CC(C)[C@H](N)C(=O)N[C@H]1CN[C@]2(CCCCB(O)OC2=O)C1 [Example 3, (S)-2-amino-N-((3R,5R)-8-hydroxy-6-oxo-7-oxa-1-aza-8-boraspiro[4.7]dodecan-3-yl)-3-methylbutanamide] |
